{"source": "patent US6828450B2", "about": "“Triptycene analogs” (Kansas State University Research Foundation, priority 2000, dated 2004)", "key": {"L1210 cells [1]": {"test_system": "L1210 cells", "assay": "DNA synthesis (3H-thymidine incorporation) in L1210 cells", "assay_type": "cell-based, murine", "settings": "for concentration at which the drug becomes effective against DNA synthesis: 2-h treatment", "method": "FIG. 9. […] Cells (1.14×10^6/0.5 ml of RPMI 1640 medium) were incubated at 37° C. for 90 min in the presence or absence (control) of the indicated concentrations of drugs, which are plotted on a logarithmic scale, and then pulse-labeled for an additional 30 min to determine the rate of ^3H-thymidine incorporation into DNA.\nFIG. 11. […] The cellular uptake of ^3H-thymidine (striped) and the rate of ^3H-thymidine incorporation into DNA (open) were determined in cells (1.38×10^6/0.5 ml of RPMI 1640 medium) respectively preincubated at 37° C. for 15 or 90 min in the presence or absence (control) of 7 μM concentrations of the indicated compounds. For the cellular transport of nucleosides, preincubated cells were then exposed to 1 μCi of ^3H-thymidine for 30 sec at 37° C. […] For DNA synthesis, preincubated cells were then pulse-labeled with 1 μCi of ^3H-thymidine for an additional 30 min at 37° C.\nFIG. 12. […] The cellular uptake of ^3H-thymidine (striped) and the rate of ^3H-thymidine incorporation into DNA (open) were determined in cells (1.64×10^6/0.5 ml of RPMI 1640 medium) respectively preincubated at 37° C. for 15 or 60 min in the presence or absence (control) of 10 and 25 μM TT2 or 25 μM H10. […] After preincubation, vehicle-treated controls were similarly spun and washed. For the cellular transport of nucleosides, preincubated cells were then exposed, in the presence (+) or absence (−) of TT2 or H10, to 1 μCi of ^3H-thymidine for 30 sec at 37° C. […] For DNA synthesis, preincubated cells were then pulse-labeled with 1 μCi of ^3H-thymidine for an additional 30 min at 37° C. in the presence (+) or absence (−) of TT2 or H10. […] Bars: means±SD (n=3).\nFor nucleic acid and protein syntheses, L1210 cells were resuspended in fresh FCS-containing RPMI 1640 medium at a density of about 1.1-1.6×10^6 cells/0.5 ml. To estimate the rate of DNA synthesis, HL-60-S, HL-60-RV and HL-60-R8 cells were resuspended in fresh FCS-containing RPMI 1640 medium at a density of 5×10^5 cells/0.5 ml."}, "L1210 cells [2]": {"test_system": "L1210 cells", "assay": "Nucleoside transport (30-sec cellular uptake) in L1210 cells", "assay_type": "cell-based, murine", "method": "FIG. 10. Concentration-dependent inhibition of nucleoside transport by the TT analog TT2 in L1210 cells in vitro. […] After washing thrice with PBS, intact cell pellets were harvested by centrifugation, incubated for 30 min in 1 ml of HLB containing 0.2% Triton X-100, and these lysates were mixed with scintillation cocktail and counted to estimate the cellular uptake of ^3H-thymidine. Results are expressed as % of ^3H-thymidine transported into vehicle-treated control cells over 30 sec (15,031±872 cpm; 100±6%; striped area).\nFIG. 11. Comparison of the inhibitory effects of novel TT analogs on DNA synthesis (open) and nucleoside transport (striped) in L1210 cells in vitro. The cellular uptake of ^3H-thymidine (striped) and the rate of ^3H-thymidine incorporation into DNA (open) were determined in cells (1.38×10^6/0.5 ml of RPMI 1640 medium) respectively preincubated at 37° C. for 15 or 90 min in the presence or absence (control) of 7 μM concentrations of the indicated compounds. For the cellular transport of nucleosides, preincubated cells were then exposed to 1 μCi of ^3H-thymidine for 30 sec at 37° C. Results are expressed as % of ^3H-thymidine transported into vehicle-treated control cells over 30 sec (15,539±1,767 cpm; 100±11%; striped control). For DNA synthesis, preincubated cells were then pulse-labeled with 1 μCi of ^3H-thymidine for an additional 30 min at 37° C. Results are expressed as % of ^3H-thymidine incorporation into DNA in vehicle-treated control cells over 30 min (28,505±2,594 cpm; 100±9%; open control). The blank value (1,075±171 cpm) for cells incubated and pulse-labeled at 2° C. with 1 μCi of ^3H-thymidine has been substracted from the results. Bars: means±SD (n=3). ^aNot different from TT3, TT7, TT9 and TT11; ^bP<0.01, smaller than TT1 but not different from TT13; ^cnot different from control; ^dP<0.025, greater than TT1; ^eP<0.05, smaller than control.\nFIG. 12. Irreversibility of the inhibitory effects of the novel TT analog TT2 on DNA synthesis (open) and nucleoside transport (striped) in L1210 cells in vitro. […] The cellular uptake of ^3H-thymidine (striped) and the rate of ^3H-thymidine incorporation into DNA (open) were determined in cells (1.64×10^6/0.5 ml of RPMI 1640 medium) respectively preincubated at 37° C. for 15 or 60 min in the presence or absence (control) of 10 and 25 μM TT2 or 25 μM H10. The protocol of the experiments and the determination of the results were identical to those of FIGS. 9 and 10, except that, after preincubation, either the drugs were maintained in the culture medium (+) or the cells were spun, washed, and resuspended in fresh medium in order to remove the drugs (−). After preincubation, vehicle-treated controls were similarly spun and washed. For the cellular transport of nucleosides, preincubated cells were then exposed, in the presence (+) or absence (−) of TT2 or H10, to 1 μCi of ^3H-thymidine for 30 sec at 37° C. Results are expressed as % of ^3H-thymidine transported into vehicle-treated control cells over 30 sec (11,054±754 cpm; 100±7%; striped control+; 14,486±1,260 cpm; 100±9%; striped control−). For DNA synthesis, preincubated cells were then pulse-labeled with 1 μCi of ^3H-thymidine for an additional 30 min at 37° C. in the presence (+) or absence (−) of TT2 or H10. Results are expressed as % of ^3H-thymidine incorporation into DNA in vehicle-treated control cells over 30 min (34,052±1,566 cpm; 100±5%; open control+; 28,811±2,506 cpm; 100±9%; open control−). The blank value (1,328±86 cpm) for cells incubated and pulse-labeled at 2° C. with 1 μCi of ^3H-thymidine has been substracted from the results. Bars: means±SD (n=3).\nL1210 cells (about 1.5×10^6 cells/0.5 ml) were preincubated for 15 min at 37° C. in the presence or absence of TTs and then exposed to 1 μCi of ^3H-thymidine for only 30 sec to assess the cellular uptake of nucleoside over such very short period of time. […]"}}, "note": "“And” between values parts separate entries of the source, which are not always exact repeats. Equal values may be shown once. “Also recorded” adds a separate entry of the source.", "data": [{"molecule": "COC1=CC(=O)C2=C(C1=O)C1C3=C(C(=O)C=CC3=O)C2c2ccccc21", "note": "(stereo not drawn) [TT2, 2-Methoxy-9,10-dihydro-9,10-[1′,2′]benzenoanthracene-1,4,5,8-tetraone]", "values": [{"measurement": "% inhibition of DNA synthesis", "setting": "L1210 cells [1]; 10 μM TT2, 60-min preincubation", "result": 69, "unit": "%"}, {"measurement": "effect on DNA synthesis", "setting": "L1210 cells [1]; 25 μM TT2, 2-h treatment", "result": "totally inhibited"}, {"measurement": "% inhibition of DNA synthesis", "setting": "L1210 cells [1]; 25 μM TT2, 60-min preincubation", "result": 97, "unit": "%"}, {"measurement": "concentration at which the drug becomes effective against DNA synthesis", "setting": "L1210 cells [1]", "result": "greater than 1.6 μM"}, {"measurement": "reversibility of the inhibition of DNA synthesis upon drug removal", "setting": "L1210 cells [1]; 10 and 25 μM TT2 or 25 μM H10, 60-min preincubation", "result": "irreversible"}, {"measurement": "IC50", "setting": "L1210 cells [1]; 90 min drug + 30 min pulse-labeling (2 h), read-out: IC50, inhibition of DNA synthesis in L1210 cells", "result": "6 µM and ~6 µM"}, {"measurement": "times TT2 inhibits DNA, RNA and protein syntheses less effectively than DAU", "setting": "L1210 cells [1]; L1210, after 2-3 h, IC50 values compared", "result": "3-6 times"}, {"measurement": "% inhibition of nucleoside transport", "setting": "L1210 cells [2]; 10 μM TT2, 15-min preincubation", "result": 67, "unit": "%"}, {"measurement": "effect on nucleoside transport", "setting": "L1210 cells [2]; 25 μM TT2", "result": "totally inhibited"}, {"measurement": "% inhibition of nucleoside transport", "setting": "L1210 cells [2]; 25 μM TT2, 15-min preincubation", "result": 93, "unit": "%"}, {"measurement": "reversibility of the inhibition of nucleoside transport upon drug removal", "setting": "L1210 cells [2]; 10 and 25 μM TT2 or 25 μM H10, 15-min preincubation", "result": "irreversible"}, {"measurement": "IC50", "setting": "L1210 cells [2]; 15-min pretreatment, 30-sec uptake, read-out: IC50, inhibition of cellular transport of nucleosides", "result": 6, "unit": "µM"}]}, {"molecule": "COc1cccc2c1C(=O)c1c(O)c3c(c(O)c1C2=O)C[C@@](O)(C(C)=O)C[C@@H]3O[C@H]1C[C@H](N)[C@H](O)[C@H](C)O1", "note": "[DAU, daunomycin, reference compound]", "values": [{"measurement": "concentration at which the drug becomes effective against DNA synthesis", "setting": "L1210 cells [1]", "result": 0.256, "unit": "µM"}, {"measurement": "times DAU prevents DNA synthesis more effectively than TT2", "setting": "L1210 cells [1]; L1210, from IC50 values", "result": "about 6 times"}, {"measurement": "effect of DAU on cellular transport of nucleosides", "setting": "L1210 cells [2]; 15-min treatment, 30-sec uptake, 10 μM DAU", "result": "inactive; also recorded: totally unable"}]}, {"molecule": "COC(=O)C1=C(C(=O)OC)C[C@H]2[C@@H](C1)[C@@H](O)C1=C(C3C4=C(C1c1ccccc13)[C@@H](O)[C@H]1CC(C(=O)OC)=C(C(=O)OC)C[C@H]1[C@H]4O)[C@H]2O", "note": "[TT12, (4aS*,5S*,7R*,12S*,14R*,7aR*,11aS*,14aR*)-Tetramethyl 1,4,4a,5,6,7,7a,8,11,11a,12,13,14,14a-tetradecahydro-5,7,12,14-tetrahydroxy-6,13-[1′,2′]benzenopentacene-2,3,9,10-tetracarboxylate]", "values": [{"measurement": "effect on DNA synthesis", "setting": "L1210 cells [1]; 7 μM, 2 h", "result": "alter neither"}, {"measurement": "effect on nucleoside transport", "setting": "L1210 cells [2]; 7 μM, 15 min", "result": "alter neither"}]}, {"molecule": "COC1=C(Br)C(=O)C2=C(C1=O)C1C3=C(C(=O)C=C(N(C)C)C3=O)C2c2ccccc21", "note": "(stereo not drawn) [TT16, 2-Bromo-3-methoxy-6-(dimethylamino)-9,10-dihydro-9,10-[1′,2′]benzenoanthracene-1,4,5,8-tetraone]", "values": [{"measurement": "potency on DNA synthesis compared with TT2", "setting": "L1210 cells [1]; FIG. 13", "result": "as potent as TT2"}, {"measurement": "potency on cellular transport of adenosine and thymidine compared with TT2", "setting": "L1210 cells [2]; FIG. 13", "result": "as potent as TT2"}]}, {"molecule": "COC(=O)C1=C(C(=O)OC)C[C@H]2C(=O)C3=C(C(=O)[C@H]2C1)C1C2=C(C(=O)[C@H]4CC(C(=O)OC)=C(C(=O)OC)C[C@H]4C2=O)C3c2ccccc21", "note": "[TT4, (4aS*,7aR*,11aS*,14aR*)-Tetramethyl 1,4,4a,5,6,7,7a,8,11,11a,12,13,14,14a-tetradecahydro-5,7,12,14-tetraoxo-6,13-[1′,2′]benzenopentacene-2,3,9,10-tetracarboxylate]", "values": [{"measurement": "effect on DNA synthesis", "setting": "L1210 cells [1]; 7 μM, 2 h", "result": "alter neither"}, {"measurement": "effect on nucleoside transport", "setting": "L1210 cells [2]; 7 μM, 15 min", "result": "alter neither"}]}]}
